US10660928B2, “Pharmaceutical composition containing combination extracts of Moutan Root Bark, Angelica Dahurica Root, bupleurum root or fractions thereof for prevention and treatment of neurodegenerative disorder” (UNIVERSITY-INDUSTRY COOPERATION GROUP OF KYUNG HEE …, priority 2014, dated 2020)

Tests used:
[1] = test system: SH-SY5Y, the human neuroblastoma cell line; test: Cell survival rate (calcein) in normal cells, cytotoxicity; assay type: cell-based; details: 1 μg/ml
Procedure: Particularly, SH-SY5Y, the human neuroblastoma cell line, was inoculated in DMEM/F12 (Dulbeco's Modified Eagle's Medium & Ham's F12; Gibco, USA) supplemented with 10% FBS, followed by culture in a 37° C., 5% CO2/95% air (O2) incubator. Then, the cultured cells were transferred into a serum free medium at the density of 2.5×10^4 cells/well. […] The cells were collected and the cell survival rate was measured by using calcein. The survival rate of the cells that were increased or decreased compared with that of the normal control cells not-treated with the extract or its active component above and instead treated with DMSO was calculated and presented as percentage (%). Particularly, SH-SY5Y cells were cultured by the same manner as described in Experimental Example <1-1>. The cultured cells were transferred in a serum free medium at the density of 2.5×10^4 cells/well. […] The cells were collected and the cell survival rate was measured by using calcein. The cell survival rate that was increased or decreased compared with that of the normal control group not-treated with the extract or its active component above and instead treated with DMSO was calculated and presented as percentage (%).

[2] = test system: SH-SY5Y, the human neuroblastoma cell line; test: MTT assay, atrazine-induced mitochondria complex 1 damage; assay type: cell-based; details: treatment 1 μg/ml, inducer atrazine 50 μg/ml
Procedure: Particularly, SH-SY5Y, the human neuroblastoma cell line, was inoculated in DMEM/F12 (1:1, Dulbeco's Modified Eagle's Medium & Ham's F12; Gibco, USA) supplemented with 10% FBS, followed by culture in a 37° C., 5% CO2/95% air (O2) incubator. Then, the cultured cells were transferred into a serum free medium at the density of 1×10^5 cells/well. […] Sigma, USA), followed by culture for 4 hours. Then, the MTT formazan precipitate formed by survived cells was dissolved in 100 μl of 0.04 N HCl/isopropanol. OD540 was measured with an ELISA microplate reader (Molecular Devices, USA). The damage of mitochondria complex 1 was confirmed to see how the damage level was either increased or decreased, compared with the normal control group treated with DMSO without the extract or its active component. In the meantime, the negative control group was treated with 50 μg/ml of atrazine alone to induce mitochondrial damage and was not treated with the extract or its active component. Then, MTT assay was performed by the same manner as described above.

SH-SY5Y cells = test: ATP assay, atrazine-induced loss of intracellular ATP; assay type: cell-based, human; details: treatment 1 μg/ml, inducer atrazine 50 μg/ml
Procedure: Particularly, SH-SY5Y cells were cultured by the same manner as described in Experimental Example <1-2>, to which 50 μg/ml of atrazine was treated to induce malfunction of mitochondria. Then, 100 μl of the cell lysate obtained from the cells with the malfunctioned mitochondria was mixed with 100 μl of luciferin-luciferase by using ATP bioluminescent somatic cell assay kit (Sigma, USA), followed by culture at 20° C. for 10 minutes. The supernatant was obtained. Fluorescence signal was measured by using LB 9501 Lumat luminometer (Berthold, Germany). The fluorescence of the control well containing the cell free medium was used as the background. The measured values were calculated by subtracting the background, and the amount of ATP was normalized to the protein concentration. The normal control was not treated with the extract of the invention or the active component thereof but instead treated with DMSO alone. All the results were presented as % by the normal control to present the intracellular ATP level. The negative control was treated with 50 μg/ml of atrazine alone to induce mitochondrial damage and not treated with the extract or the active component thereof. The Intracellular ATP level was measured by the same manner as described above.

[3] = test system: cytochrome c oxidase subunit III (COX III); test: RT-PCR of COX III expression, atrazine-damaged cells; assay type: cell-based, human; details: 1 μg/ml
Procedure: (§1) Particularly, SH-SY5Y cells were cultured by the same manner as described in Experimental Example <1-2>, and mitochondrial malfunction was induced. Then, the cells with the malfunctioned mitochondria were suspended in TRIzol (Invitrogen, USA) and total RNA was extracted therefrom according to the manufacturer's protocol. […] PCR was performed with GeneAmp PCR system 9700 (Applied Biosystem, USA) under the required optimum condition by using the synthesized cDNA as a template in the presence of the forward and reverse primers listed in Table 5 below, leading to the amplification of COX III and Park? (DJ-1) genes. The amplified PCR products were electrophoresed on 1.5% agarose gel. The relative concentration was measured by using an image densitometer (Alpha Ease FC software; Alpha Innotech, USA) under UV. The level of mRNA was standardized by comparison with the level of 18S rRNA. The normal control was not treated with the extract of the invention or the active component thereof but instead treated with DMSO alone. The negative control was treated with 50 μg/ml of atrazine alone to induce mitochondrial damage and not treated with the extract or the active component thereof. The gene expression level was investigated by the same manner as described above.

Park7 (DJ-1) = test: RT-PCR of Park7 (DJ-1) expression, atrazine-damaged cells; assay type: cell-based, human; details: 1 μg/ml
Procedure: as §1

BV2 cells [4] = test: MTT assay, LPS-induced inflammatory response; assay type: cell-based, mouse; details: BV2, treatment 1.0 μg/ml, inducer LPS 100 ng/ml
Procedure: Particularly, BV2 cells were cultured by the same manner as described in Experimental Example <3-1>. Then, the cultured cells were transferred into a serum free medium at the density of 1×10^5 cells/well. The cells were treated with the Bupleurum Root 90% ethanol extract prepared in Example <1-3>, saikosaponin A, saikosaponin B2, saikosaponin B4, or saikosaponin D at the concentration of 1.0 μg/ml, followed by culture for 4 hours. The cells were then treated with 100 ng/ml of lipopolysaccharide (LPS), followed by culture for 20 hours to induce inflammatory response. MTT assay was performed with the cells induced with inflammatory response by the same manner as described in Experimental Example <1-2>. The damage of mitochondria complex 1 was confirmed to see how the damage level was either increased or decreased, compared with the normal control group treated with DMSO without the extract or its active component. In the meantime, the negative control group was treated with 100 ng/ml of LPS alone to induce inflammatory response and was not treated with the extract or its active component. Then, MTT assay was performed by the same manner as described above.

BV2 cells [5] = test: Griess method, nitric oxide in medium of LPS-induced cells; assay type: cell-based, mouse; details: BV2, treatment 1.0 μg/ml, inducer LPS 100 ng/ml
Procedure: Particularly, BV2 cells were cultured by the same manner as described in Experimental Example <3-1>, and inflammatory response was induced. Then, 100 μl of the cell culture medium was obtained, to which 100 μl of Griess reagent comprising hydrochloric acid containing 5% sulfanilamide and 2% naphthylethylenediamine was added, followed by reaction in a dark room for 30 minutes. Upon completion of the reaction, OD540 was measured with an EISA microplate reader (Versamax, USA). The concentration of nitric oxide in the medium was calculated using the standard calibration curve of sodium nitrite. The normal control was not treated with the extract or the active component thereof but treated with DMSO. The negative control was treated with 100 ng/ml of LPS alone to induce inflammatory response but not treated with the extract or the active component. Then, the nitric oxide concentration reduction effect was investigated by the same manner as described above.
(§2) Particularly, BV2 cells were cultured by the same manner as described in Experimental Example <3-1>, and inflammatory response was induced. Then, 100 μl of the cell culture medium was obtained, to which 100 μl of Griess reagent comprising hydrochloric acid containing 5% sulfanilamide and 2% naphthylethylenediamine was added, followed by reaction in a dark room for 30 minutes. Upon completion of the reaction, OD540 was measured with an EISA microplate reader (Versamax, USA). The concentration of nitric oxide in the medium was calculated using the standard calibration curve of sodium nitrite. To measure the ROS concentration, the cells were treated with 1 μM DCF-DA and 0.05 μM bisbenzimide (Hoechst 33342), followed by staining at 37° C. for 1 hour. After the staining, the fluorescence intensity of DCF-DA was measured at 485 nm/535 nm, and the fluorescence intensity of bisbenzimide was measured at 335 nm/460 nm. Based on the ratio of DCF-DA/bisbenzimide, ROS was quantified. The amount of ROS, either increased or decreased, was compared with that of the normal control not treated with the extract but treated with DMSO, and the results were presented as %. The negative control was treated with 100 ng/ml of LPS alone to induce inflammatory response but not treated with the extract or the active component thereof. Then, the nitric oxide concentration reduction effect and the ROS concentration reduction effect were investigated by the same manner as described above.

[6] = test system: inducible nitric oxide synthase (iNOS); test: RT-PCR of iNOS mRNA, LPS-induced cells; assay type: cell-based, mouse; details: BV2, treatment 1.0 μg/ml, LPS 100 ng/ml; negative control 100.00
Procedure: (§3) Particularly, BV2 cells were cultured by the same manner as described in Experimental Example <3-1>, and inflammatory response was induced. Then, RT-PCR was performed with the cells by the same manner as described in Experimental Example <1-4>, followed by quantitative analysis of the expression levels of iNOS, IL-6, and NF-kB p65/ReIA genes. The normal control was not treated with the extract of the invention or the active component thereof but treated with DMSO alone. The negative control was not treated with the extract or the active component but treated with 100 ng/ml of LPS alone to induce inflammatory response. Then, the expression of the inflammatory response marker gene was confirmed by the same manner as described above.

interleukin-6, (IL-6) = test: RT-PCR of IL-6 mRNA, LPS-induced cells; assay type: cell-based, mouse; details: BV2, treatment 1.0 μg/ml, LPS 100 ng/ml; negative control 100.00
Procedure: as §3

NF-kB p65/ReIA = test: RT-PCR of NF-kB p65/ReIA mRNA, LPS-induced cells; assay type: cell-based, mouse; details: BV2, treatment 1.0 μg/ml, LPS 100 ng/ml; negative control 100.00
Procedure: as §3

BV2 cells [7] = test: DCF-DA intracellular ROS, LPS-induced cells; assay type: cell-based, mouse; details: BV2, treatment 1.0 μg/ml, inducer LPS 100 ng/ml
Procedure: Particularly, BV2 cells were cultured by the same manner as described in Experimental Example <3-1>, and inflammatory response was induced. Then, the cells induced with inflammatory response were treated with 1 μM DCF-DA and 0.05 μM bisbenzimide (Hoechst 33342), followed by staining at 37° C. for 1 hour. After the staining, the fluorescence intensity of DCF-DA was measured at 485 nm/535 nm, and the fluorescence intensity of bisbenzimide was measured at 335 nm/460 nm. Based on the ratio of DCF-DA/bisbenzimide, ROS was quantified. The amount of ROS, either increased or decreased, was compared with that of the normal control not treated with the extract or the active component thereof but treated with DMSO, and the results were presented as %. The negative control was treated with 100 ng/ml of LPS alone to induce inflammatory response but not treated with the extract or the active component thereof. Then, the generation of ROS was investigated by the same manner as described above.
as §2

[8] = normal SH-SY5Y cells, 4 hours, calcein

## COc1ccc(C(C)=O)c(O)c1 [Paeonol, 2′-Hydroxy-4′-methoxyacetophenone]
[1]; [8]
  Cell survival rate (% of control): 102.2 ± 9.10 % of control
[2]
  MTT (% of control): 101.8 ± 7.21 % of control
SH-SY5Y cells
  Intracellular ATP content (% of control): 101.9 ± 7.42 % of control
[3]; with atrazine
  COX III/18S rRNA: 1.07 ± 0.07
[3]; without atrazine
  COX III/18S rRNA: 1.05 ± 0.03
Park7 (DJ-1); with atrazine
  Park7(DJ-1)/18S rRNA: 0.95 ± 0.07
Park7 (DJ-1); without atrazine
  Park7(DJ-1)/18S rRNA: 1.22 ± 0.08

## C[C@@]12CC(=O)[C@H]3C[C@]1(O)O[C@H](O2)[C@@H]3COC(=O)c1ccccc1 [paeoniflorigenone, [(2s,3as,5s,7ar,8s)-3a-hydroxy-7a-methyl-6-oxohexahydro-2,5-methano-1,3-benzodioxol-8-yl]methyl benzoate]
[1]; human, 4 h
  Cell survival rate (% of control): 98.9 ± 8.10 % of control
[2]
  MTT (% of control): 95.5 ± 6.09 % of control
SH-SY5Y cells
  Intracellular ATP content (% of control): 89.1 ± 7.97 % of control
[3]; with atrazine
  COX III/18S rRNA: 0.86 ± 0.07
[3]; without atrazine
  COX III/18S rRNA: 1.04 ± 0.05
Park7 (DJ-1); with atrazine
  Park7(DJ-1)/18S rRNA: 0.45 ± 0.02
Park7 (DJ-1); without atrazine
  Park7(DJ-1)/18S rRNA: 0.98 ± 0.08

## C[C@@]12C[C@@]3(O)O[C@@H](O1)[C@]1(COC(=O)c4ccccc4)[C@H]3C[C@@]12O[C@@H]1O[C@H](CO)[C@@H](O)[C@H](O)[C@H]1O [paeoniflorin]
[1]; [8]
  Cell survival rate (% of control): 97.9 ± 7.34 % of control
[2]
  MTT (% of control): 96.4 ± 7.44 % of control
SH-SY5Y cells
  Intracellular ATP content (% of control): 94.3 ± 6.44 % of control
[3]; with atrazine
  COX III/18S rRNA: 0.92 ± 0.08
[3]; without atrazine
  COX III/18S rRNA: 1.11 ± 0.04
Park7 (DJ-1); with atrazine
  Park7(DJ-1)/18S rRNA: 2.03 ± 0.07
Park7 (DJ-1); without atrazine
  Park7(DJ-1)/18S rRNA: 1.05 ± 0.08

## C[C@H]1O[C@@H](O[C@H]2CC[C@@]3(C)[C@@H](CC[C@]4(C)[C@@H]3C=C[C@]35OC[C@@]6(CCC(C)(C)C[C@H]63)[C@@H](O)C[C@]54C)[C@]2(C)CO)[C@H](O)[C@@H](O[C@@H]2O[C@H](CO)[C@@H](O)[C@H](O)[C@H]2O)[C@H]1O [saikosaponin A, (3beta,4alpha,16beta)-13,28-Epoxy-16,23-dihydroxyolean-11-en-3-yl-6-deoxy-3-O-beta-D-glucopyranosyl-beta-D-galactopyranoside]
BV2 cells [4]
  MTT (% of control): 91.49 ± 6.20 % of control
BV2 cells [5]
  NO: 10.8 ± 3.6 µM
[6]
  iNOS mRNA (% of control): 14.85 ± 1.47 % of control
interleukin-6, (IL-6)
  IL-6 mRNA (% of control): 18.05 ± 1.23 % of control
NF-kB p65/ReIA
  p65/ReIA mRNA (% of control): 40.38 ± 1.05 % of control
BV2 cells [7]
  DCF-DA-ROS (% of control): 198.24 ± 3.72 % of control
